{"source": "the supplement of paper PMC11208160", "data": [{"test": "recombinant UMI read abundance after kanamycin selection (control-corrected) (log10(CPM+1)); higher = more efficient recombination; extreme values may be limits of the assay; sequences stand for … in AGTGCAGAGAAAATCGGCCAGTTTTCTCTGCCTGCAGTCCGCATGCCGTGGGACCCCTTGGGTTCTAACCTGTTGCCTAGATTTATGCAGCGGACTGCCTTTCTCCCAAAGTGATAAACCGG…AGGTTGGTTTCACT; site = the 11-nt donor", "summary_of_the_method": "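Each donor and donor-binding-loop pair was tracked by a 12-nt UMI on a plasmid carrying a promoterless kanamycin gene. With a second plasmid supplying a fixed target and T7-inducible IS621 bridge recombinase, the pool was plated in Escherichia coli on IPTG (0.07 mM) plus kanamycin or unselected. Sequencing of recombinant UMIs across the donor–target junction gave counts expressed as log10(CPM+1) after replicate averaging and control-derived scaling.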", "values": [{"sequence": "TGCTAGTCATGGACCGGTTTTCCCGGTAATCCGTATTTGGT (site TGCTAGGCTAC)", "recombinant UMI read abundance (log10)": 0.00963}, {"sequence": "TGCTAGTCATGGACCGGTTTTCCCGGTAATCCGTATTTGGT (site TGCTAGTCTAC)", "recombinant UMI read abundance (log10)": 1.07}, {"sequence": "TGCTCAGCATGGACCGGTTTTCCCGGTAATCCGTATTTGGG (site AGCTCAGCTCC)", "recombinant UMI read abundance (log10)": 0.0267}, {"sequence": "TGCTCAGCATGGACCGGTTTTCCCGGTAATCCGTATTTGGG (site CGCTCAGCTCC)", "recombinant UMI read abundance (log10)": 0.0151}, {"sequence": "TGCTCAGCATGGACCGGTTTTCCCGGTAATCCGTATTTGGG (site GGCTCAGCTCC)", "recombinant UMI read abundance (log10)": 0.0391}, {"sequence": "TGCTCAGCATGGACCGGTTTTCCCGGTAATCCGTATTTGGG (site TGCTCAGCTCC)", "recombinant UMI read abundance (log10)": 0.00921}, {"sequence": "TGCTCGGCATGGACCGGTTTTCCCGGTAATCCGTATTTGAT (site TGCTCGGCTAT)", "recombinant UMI read abundance (log10)": 0.54}, {"sequence": "TGCTCGGCATGGACCGGTTTTCCCGGTAATCCGTATTTGGT (site TGCTAGGCTAC)", "recombinant UMI read abundance (log10)": 0.00732}, {"sequence": "TGCTCGGCATGGACCGGTTTTCCCGGTAATCCGTATTTGGT (site TGCTCGGCTAC)", "recombinant UMI read abundance (log10)": 0.0236}, {"sequence": "TGCTCGGCATGGACCGGTTTTCCCGGTAATCCGTATTTGGT (site TGCTGGGCTAC)", "recombinant UMI read abundance (log10)": 0.00677}, {"sequence": "TGCTCGGCATGGACCGGTTTTCCCGGTAATCCGTATTTGGT (site TGCTTGGCTAC)", "recombinant UMI read abundance (log10)": 0.00594}, {"sequence": "TGCTGAGCATGGACCGGTTTTCCCGGTAATCCGTATTTGAT (site TGCTGAGCTAT)", "recombinant UMI read abundance (log10)": 1.36}, {"sequence": "TGCTTCGCATGGACCGGTTTTCCCGGTAATCCGTATTTGTC (site TGCTTCGCTGA)", "recombinant UMI read abundance (log10)": 0.542}, {"sequence": "TGGAATACATGGACCGGTTTTCCCGGTAATCCGTATTTGCA (site TAGAATACTTG)", "recombinant UMI read abundance (log10)": 0.91}, {"sequence": "TGGAATACATGGACCGGTTTTCCCGGTAATCCGTATTTGCA (site TCGAATACTTG)", "recombinant UMI read abundance (log10)": 0.55}, {"sequence": "TGGAATACATGGACCGGTTTTCCCGGTAATCCGTATTTGCA (site TGGAATACTTG)", "recombinant UMI read abundance (log10)": 1.86}, {"sequence": "TGGAATACATGGACCGGTTTTCCCGGTAATCCGTATTTGCA (site TTGAATACTTG)", "recombinant UMI read abundance (log10)": 0.00597}, {"sequence": "TGGAATCCATGGACCGGTTTTCCCGGTAATCCGTATTTGTG (site CGGAATCCTAA)", "recombinant UMI read abundance (log10)": 0.00353}, {"sequence": "TGGAATCCATGGACCGGTTTTCCCGGTAATCCGTATTTGTG (site TGGAATCCTCA)", "recombinant UMI read abundance (log10)": 0.604}, {"sequence": "TGGAATGCATGGACCGGTTTTCCCGGTAATCCGTATTTGTT (site CGGAATCCTAA)", "recombinant UMI read abundance (log10)": 0.00325}, {"sequence": "TGGAATGCATGGACCGGTTTTCCCGGTAATCCGTATTTGTT (site TGGAATGCTAA)", "recombinant UMI read abundance (log10)": 1.71}, {"sequence": "TGGACACCATGGACCGGTTTTCCCGGTAATCCGTATTTGAC (site TGAACACCTGT)", "recombinant UMI read abundance (log10)": 0}, {"sequence": "TGGACACCATGGACCGGTTTTCCCGGTAATCCGTATTTGAC (site TGCACACCTGT)", "recombinant UMI read abundance (log10)": 0}, {"sequence": "TGGACACCATGGACCGGTTTTCCCGGTAATCCGTATTTGAC (site TGGACACCTGT)", "recombinant UMI read abundance (log10)": 0}, {"sequence": "TGGACACCATGGACCGGTTTTCCCGGTAATCCGTATTTGAC (site TGTACACCTGT)", "recombinant UMI read abundance (log10)": 0}, {"sequence": "TGGAGTGCATGGACCGGTTTTCCCGGTAATCCGTATTTGAC (site TGGAGTGCTGT)", "recombinant UMI read abundance (log10)": 2.21}, {"sequence": "TGGATACCATGGACCGGTTTTCCCGGTAATCCGTATTTGTT (site TGGATACCTAA)", "recombinant UMI read abundance (log10)": 0}, {"sequence": "TGGATGACATGGACCGGTTTTCCCGGTAATCCGTATTTGCA (site AGGAAGACTTG)", "recombinant UMI read abundance (log10)": 0.54}, {"sequence": "TGGATGACATGGACCGGTTTTCCCGGTAATCCGTATTTGCA (site TGGATGACTTG)", "recombinant UMI read abundance (log10)": 2.44}, {"sequence": "TGGATGTCATGGACCGGTTTTCCCGGTAATCCGTATTTGAA (site TGGATGTCTTT)", "recombinant UMI read abundance (log10)": 2.11}, {"sequence": "TGGCAAGCATGGACCGGTTTTCCCGGTAATCCGTATTTGTC (site TGGCAAGCTGA)", "recombinant UMI read abundance (log10)": 0}, {"sequence": "TGGCCCGCATGGACCGGTTTTCCCGGTAATCCGTATTTGGC (site TGGCCAGCTGC)", "recombinant UMI read abundance (log10)": 0}, {"sequence": "TGGCCCGCATGGACCGGTTTTCCCGGTAATCCGTATTTGGC (site TGGCCCGCTGC)", "recombinant UMI read abundance (log10)": 0.649}, {"sequence": "TGGCCCGCATGGACCGGTTTTCCCGGTAATCCGTATTTGGC (site TGGCCGGCTGC)", "recombinant UMI read abundance (log10)": 0}, {"sequence": "TGGCCCGCATGGACCGGTTTTCCCGGTAATCCGTATTTGGC (site TGGCCTGCTGC)", "recombinant UMI read abundance (log10)": 0}, {"sequence": "TGGCCGACATGGACCGGTTTTCCCGGTAATCCGTATTTGGG (site TGGCCGACTCC)", "recombinant UMI read abundance (log10)": 0}, {"sequence": "TGGCCGCCATGGACCGGTTTTCCCGGTAATCCGTATTTGGC (site TGGCCGACTGC)", "recombinant UMI read abundance (log10)": 0.0204}, {"sequence": "TGGCCGCCATGGACCGGTTTTCCCGGTAATCCGTATTTGGC (site TGGCCGCCTGC)", "recombinant UMI read abundance (log10)": 0}]}]}
